The text below walks through data of article PMC10578347 (Journal of Medicinal Chemistry, 2023).

Series [1] addresses Nurr1 LBD (Homo sapiens, UniProt P43354). Kind of series: Isothermal titration calorimetry. Format: binding. The settings on record: ITC, 25 °C, recombinant Nurr1 LBD. For orientation: Isothermal titration calorimetry measures the heat released or taken up as one component is titrated into another.
Series [2] has as its system HEK293T cells. Kind of series: WST-8 cytotoxicity assay. It counts as cell-based. The note with it: stable Renilla luciferase activity and WST-8 assay; 100 μM. A general note: Tetrazolium assays rely on reduction of a dye to a coloured formazan, in cell work by metabolically active cells.
The target in series [3] is Nurr1 LBD. The note with it: cited from earlier work.
The test system of series [4] is TH, VMAT2, SOD1/2 mRNA expression in N27 rat dopaminergic neural cells. It counts as cell-based.
Series [5] concerns the target Nur77 (NR4A1) (Homo sapiens, UniProt P22736). It counts as cell-based.
The subject of series [6] is nuclear receptors outside the NR4A family (THRα, RARα, PPARγ, revERBα, RORγ, VDR, LXRα, FXR, RXRα). Format: cell-based.
For series [7], the target named is T1, NOR-1 (NR4A3) (Homo sapiens, UniProt Q92570).
T1 sequence (Q92570 394-623 limits assumed): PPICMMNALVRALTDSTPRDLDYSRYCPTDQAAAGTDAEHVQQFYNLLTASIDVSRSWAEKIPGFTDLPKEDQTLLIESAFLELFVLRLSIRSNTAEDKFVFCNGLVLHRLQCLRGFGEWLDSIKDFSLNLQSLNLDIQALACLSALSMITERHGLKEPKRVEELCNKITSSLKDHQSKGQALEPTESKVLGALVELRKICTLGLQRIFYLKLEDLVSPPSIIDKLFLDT
It counts as cell-based.

In series [8] the test system is TH and VMAT2 mRNA expression in T98G cells. It counts as cell-based, human.
A short description of series [9]: Glutathione reactivity assay. Format: physicochemical. The note with it: 125 μM compound, 2.5 mM GSH in PBS at 37 °C, up to 24 h.

SMILES strings stand for the structures. Entries after “also recorded” stand apart in the source; their conditions may differ.

Nur77 (NR4A1), sequence (P22736 360-595 limits assumed, species assumed): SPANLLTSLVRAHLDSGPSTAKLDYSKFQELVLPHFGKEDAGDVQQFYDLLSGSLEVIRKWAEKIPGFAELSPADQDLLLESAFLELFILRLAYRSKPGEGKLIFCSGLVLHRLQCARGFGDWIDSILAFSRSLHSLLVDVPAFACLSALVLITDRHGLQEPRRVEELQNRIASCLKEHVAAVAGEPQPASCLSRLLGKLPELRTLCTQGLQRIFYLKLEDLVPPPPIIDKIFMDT
Nurr1 LBD (Homo sapiens, UniProt P43354), sequence (P43354 360-598): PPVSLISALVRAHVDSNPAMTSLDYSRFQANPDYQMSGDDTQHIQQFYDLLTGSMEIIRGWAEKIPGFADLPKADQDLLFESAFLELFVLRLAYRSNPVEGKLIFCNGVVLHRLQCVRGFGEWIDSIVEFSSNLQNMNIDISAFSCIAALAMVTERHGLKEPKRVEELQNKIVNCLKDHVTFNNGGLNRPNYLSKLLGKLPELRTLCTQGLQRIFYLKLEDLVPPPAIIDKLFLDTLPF

Usually Kd stands for a measure of binding affinity in units of concentration. `CCN(CC)C1CCC(NC(=O)c2cc3[nH]ccc3cc2Cl)CC1` (centres unmarked) [5t]: in series [1], the Kd entry is listed as “no detectable interaction; also recorded: no binding^c”. In addition, the “effect on cell viability” value in series [2] is “no pronounced effect on cell viability”.
Turning to `Clc1ccc2[nH]ccc2c1` [2b, 5-chloro-1H-indole], in [3], the dissociation constant (Kd) is 15 µM. Also, the “TH, VMAT, SOD1/2 expression” value in series [4] is recorded as “induced”.
In the case of `CCCCN1CCC(CNC(=O)c2cc3[nH]ccc3cc2Cl)C1` (centres unmarked) [5v], the “effect on cell viability” value in series [2] was “no pronounced effect on cell viability”.
On to `CC1CCN(CCCNC(=O)c2cc3[nH]ccc3cc2Cl)CC1` [5m], for which the Kd entry in series [1] is recorded as “no detectable interaction; also recorded: no binding^c”. Also, the “effect on cell viability” value in [2] was “no pronounced effect on cell viability”.
As for `Oc1cc2cc[nH]c2cc1O` [DHI (2a), 5,6-dihydroxyindole], in [4], the TH expression result is listed as “downregulated” and the “TH, VMAT, SOD1/2 expression” value is given as “generally weaker effects”.
Turning to `O=C(NCCN1CCC2CCCCC2C1)c1cc2[nH]ccc2cc1Cl` (centres unmarked) [5r], the “effect on cell viability” value in [2] was “no pronounced effect on cell viability”.
Regarding `CN(C)CCOc1ccc(Cl)cc1Nc1ccnc2cc(Cl)ccc12` [compound 13, 7-Chloro-N-{5-chloro-2-[2-(dimethylamino)ethoxy]phenyl}quinolin-4-amine], the “activity on Nur77 (NR4A1)” value in series [5] was “activated Nurr1 and Nur77 with equal potency”. Also, the “TH, VMAT, SOD1/2 expression” value in series [4] was “induced”. In addition, the “modulation of nuclear receptors outside the NR4A family” value in series [6] is “did not modulate; also recorded: No nuclear receptor modulation”. In addition, the “activity on NOR-1 (NR4A3)” value in series [7] is reported as “preference over NOR-1; also recorded: less active on NOR-1”.
Turning to `CC(C)N1CCC(NC(=O)c2cc3[nH]ccc3cc2Cl)CC1` [5e], the dissociation constant (Kd) entry in [1] was “no detectable interaction; also recorded: no binding^c”. For the same compound, in series [2], the “effect on cell viability” value was “no pronounced effect on cell viability”.
For `CN(C)CCOc1ccc(Cl)cc1NC(=O)c1cc2[nH]ccc2cc1Cl` [5o, 5-Chloro-N-{5-chloro-2-[2-(dimethylamino)ethoxy]phenyl}-1H-indole-6-carboxamide], the “Nurr1-regulated mRNA expression of TH and VMAT2” value in [8] is reported as “induced”. For the same compound, in [5], the “activity on Nur77 (NR4A1)” value is reported as “preference for Nurr1 over the related NR4A receptors; also recorded: preference of 5o for Nurr1 over Nur77”. Also, the “TH, VMAT, SOD1/2 expression” value in series [4] is listed as “induced”. Also, in series [6], the “modulation of nuclear receptors outside the NR4A family” value is “did not modulate; also recorded: No nuclear receptor modulation”. In [2], the “effect on cell viability” value is on record as “no pronounced effect on cell viability”. Moreover, the “activity on NOR-1 (NR4A3)” value in [7] is “preference for Nurr1 over the related NR4A receptors; also recorded: no NOR-1 (NR4A3) activation”. Moreover, the “stability against reaction with glutathione (GSH)” value in series [9] is reported as “stable; also recorded: High stability”.
